Experimental data published in patent publication US20100317730A1, “Treatment for menopausal and perimenopausal vasomotor symptons” (priority 2009, published 2010).

System: perimenopausal and menopausal vasomotor symptoms, hot flashes and excessive sweating
Experiment: Clinical use of topiramate for menopausal and perimenopausal vasomotor symptoms
Type: in vivo, human
Text: Based on data and observations made by the inventor, they have found topiramate to have the following, previously undiscovered, beneficial pharmacological effects for patients with excessive sweating and hot flashes. They are as follows: • 1. […] Helps to prevent patients from experiencing hot flashes, excessive sweating, and vasomotor symptoms associated with their perimenopause and menopause. • 3. Substantial improve or completely suppress nighttime vasomotor symptoms, excessive sweating, and hot flashes associated with perimenopause and menopause. • 4. Substantial improve or completely suppress daytime vasomotor symptoms, excessive sweating, and hot flashes associated with perimenopause and menopause. • 5. Effective in controlling these symptoms when taken only on an as needed basis. […] Optionally, the topiramate can be taken as a low dose on an as-needed basis. […] a person had been stable on their current treatment for Panic and Major Depressive Disorders with a satisfactory remission for several years and without any side effect complaints. However, now […], they started developing menopausal symptoms of hot flashes and excessive sweating. After counselling and informed consent about the off-label use, they took a trial of topiramate 25 mg by mouth twice daily. Upon follow up, they confirmed that the excessive sweating was improved with this low dose of topiramate and that they have found it to be effective when taken on an as needed basis, depending on their expectations of physical activity and weather/temperature conditions. […] Several other similar clinical examples were observed.

CC1(C)O[C@@H]2[C@@H](CO[C@@]3(COS(N)(=O)=O)OC(C)(C)O[C@@H]23)O1 [topiramate]
excessive sweating (A person, menopausal hot flashes and excessive sweating, topiramate 25 mg by mouth twice daily, at follow up): improved | effectiveness when taken on an as needed basis (A person, low dose topiramate taken as needed, depending on physical activity and weather/temperature): effective | adverse effects (A person, topiramate 25 mg by mouth twice daily): no adverse effects | side effects (inventor's patients, small doses): minimal to no side effects | vasomotor symptoms, excessive sweating and hot flashes (perimenopausal and menopausal patients, inventor's data and observations): Substantial improvement | treating hot flashes and hyperhidrosis (perimenopausal and menopausal women, doses as low as 12.5 mg per day): highly effective
